Reference: patent US12534583B2, “Compositions and polymer films” (Fujifilm Manufacturing Europe B.V., priority 2020, dated 2026)
Counter-ions that a name gives are not always drawn.

Assay: Solubility in water determined visually or by UV-spectrometry
Settings: 40° C. overnight, M = Li
Experimental: The solubility of the compounds of Formula (I) was determined visually or by UV-spectrometry. For each compound of Formula (I), three solutions were prepared: one solution at 30 wt %, one solution at 60 wt %, and one solution at 70 wt % containing a 1:1 molar ratio of the compound of Formula (I) with cross-linker Li-BVBSI. 500 ppm 40H-TEMPO was included in all three solutions to prevent premature polymerisation. The solutions were kept in a water bath of 40° C. overnight and centrifuged prior inspection. UV spectra were recorded in a Cary™ 100 UV-visible spectrophotometer from Agilent Technologies using a 1 mm path length quartz cuvette.

Row | Structure (SMILES) | Solubility in water at 40° C. [wt %]
1 | C=Cc1ccc(S(=O)(=O)[O-])cc1.[Li+] [LiSS, Styrene sulphonate, lithium salt, reference compound] | 40
2 | C=Cc1ccc(S(=O)(=O)NS(N)(=O)=O)cc1 [MM-A, Benzenesulphonamide, 4-ethenyl-N-(aminosulphonyl)-, lithium salt] | >60
3 | C=Cc1ccc(S(=O)(=O)NS(C)(=O)=O)cc1 [MM-M, Benzenesulphonamide, 4-ethenyl-N-(methylsulphonyl)-, lithium salt] | >60
4 | C=Cc1ccc(S(=O)(=O)NS(=O)(=O)c2ccccc2)cc1 [MM-P, Benzenesulphonamide, 4-ethenyl-N-(phenylsulphonyl)-, lithium salt] | >60
5 | C=Cc1ccc(S(=O)(=O)NS(=O)(=O)C(F)(F)F)cc1 [MM-Tf, Benzenesulphonamide, 4-ethenyl-N-[(trifluoromethyl)sulphonyl]-, lithium salt, reference compound] | >60
